“Also recorded” adds a separate entry of the source. Like-named read-outs stand apart in the source and are kept apart here.
Experiments:
[1] = tested on: myopia progression; details: cited from earlier work; for Control of myopia progression / Side effects: 0.01% atropine eye drops
[2] = at therapeutic doses; cited from earlier work
[3] = Ink testing of HA loaded ink; format: physicochemical
Experimental: Required amount of HA was directly added in an ink, followed by sonication for 15 minutes, thus providing HA in a polymer matrix.
In case of HA, which was HEMA monomer ink insoluble, its particulate form (without processing) is loaded in ink along with Tween 20, followed by sonication for 5 to 60 minutes.
The following table provides results of ink testing.

[4] = HA loaded ink, direct HA loading, 2% drug loading

In the case of `CN1[C@@H]2CC[C@H]1C[C@@H](OC(=O)C(CO)c1ccccc1)C2` (stereo partly drawn) [Atropine], the “Control of myopia progression” value [1] is listed as “effective in reducing the progression of myopia”, the Side effects [1] is listed as “cycloplegia; also recorded: Photophobia; also recorded: elevation of intraocular pressures; also recorded: Risk of angle closure glaucoma” and the “Control of myopia progression” value ([1]; listed as atropine) is listed as “ability to control the progress of myopia; also recorded: effective in controlling myopia progression”. The Side effects ([1]; listed as atropine) was “limited side effects; also recorded: minimal side effects”, the “Effect of discontinuation of atropine treatment” value ([1]; in some cases) was “rebound of myopia progression” and the Progression of myopia ([1]; low dose atropine drops in combination with multifocal glasses) was “slow the progression of myopia”.

In the case of `CCNC(=O)CCC/C=C\C[C@@H]1[C@@H](/C=C/[C@@H](O)CCc2ccccc2)[C@H](O)C[C@@H]1O` [Bimatoprost], the “Systemic or local toxicity” value [2] is given as “minimal systemic or local toxicity”.

With Hyaluronic Acid [Hyaluronic Acid (HA)] the “EST (mN/m)” value [3, 4] was 36.03 mN/m, the “Particle/globule size (nm)” value [3, 4] was 1227 nm and the “Viscosity (c.p.)” value [3, 4] was 12.6 c.p. The pH [3, 4] was 6 and the “Solubility in HEMA monomer ink” value ([3]; HEMA monomer ink) was “insoluble”.

From patent publication US11510869B2, “Medical devices including medicaments and methods of making and using same including enhancing comfort, enhancing drug penetration, and treatment of myopia” (priority 2010, dated 2022)
